Measured values from US20170223995A1, “Sweetener Blend Compositions” (The Coca-Cola Company, priority 2011, published 2017).

Assay: Multi-sip and swallow taste test by a trained taste tester
Format: in vivo
Experimental: Multi-Sip and Swallow Test Method
A sip (approximately 2.0-5.0 mL) of a sample was swallowed by a trained taste tester. After allowing a 15-25 second interval to pass, a second sip of the sample is tasted and swallowed. This process is repeated as needed to determine the taste properties. The taste properties are then recorded by the trained taste tester. Preferably no more than ten samples are tested per day to avoid taste fatigue. Each sample was taken at least 1.5 hours following eating or drinking.

[1] = 500 ppm in carbon-treated water
[2] = as restated in the Discussion, out of highest five
[3] = 100,000 ppm in carbon-treated water

For `C=C1C[C@@]23CC[C@H]4[C@@](C)(CCC[C@@]4(C)C(=O)O[C@@H]4O[C@H](CO)[C@@H](O)[C@H](O)[C@H]4O)[C@@H]2CC[C@]1(O[C@@H]1O[C@H](CO)[C@@H](O)[C@H](O[C@@H]2O[C@H](CO)[C@@H](O)[C@H](O)[C@H]2O)[C@H]1O[C@@H]1O[C@H](CO)[C@@H](O)[C@H](O)[C@H]1O)C3` [rebaudioside A], the bitterness intensity [1] was 4 out of 5, the sugar-like tasting quality [1] was 0 out of 5 and the sweetness intensity [1] was 5 out of 10. The sweetness linger [1] was 5 out of 5 and the sweetness linger [2] was 5.
With `C=C1C[C@@]23CC[C@H]4[C@@](C)(CCC[C@@]4(C)C(=O)O[C@@H]4O[C@H](CO)[C@@H](O)[C@H](O)[C@H]4O[C@@H]4O[C@H](CO)[C@@H](O)[C@H](O)[C@H]4O)[C@@H]2CC[C@]1(O[C@@H]1O[C@H](CO)[C@@H](O)[C@H](O[C@@H]2O[C@H](CO)[C@@H](O)[C@H](O)[C@H]2O)[C@H]1O[C@@H]1O[C@H](CO)[C@@H](O)[C@H](O)[C@H]1O)C3` [rebaudioside D] the “sweetness (in words, compared with rebaudioside A)” value (Discussion) was “less sweetness”, the sweetness linger [2] was 5 and the “sugar-like tasting quality (in words, comparison)” value (text remarks, comparison with rebaudioside A) was “slightly more sugar-like taste quality”.
With `C=C1C[C@@]23CC[C@H]4[C@@](C)(CCC[C@@]4(C)C(=O)O)[C@@H]2CC[C@]1(O[C@@H]1O[C@H](CO)[C@@H](O)[C@H](O)[C@H]1O[C@@H]1O[C@H](CO)[C@@H](O)[C@H](O)[C@H]1O)C3` [steviolbioside] the bitterness intensity [1] was “no bitterness”, the sugar-like tasting quality [1] was 2 out of 5 and the sweetness intensity [1] was 5 out of 10. For the same molecule, the sweetness linger [1] was 3 out of 5 and the sweetness onset [1] was “slow sweetness onset”.
For `C=C1C[C@@]23CC[C@H]4[C@@](C)(CCC[C@@]4(C)C(=O)O[C@@H]4O[C@H](CO)[C@@H](O)[C@H](O)[C@H]4O)[C@@H]2CC[C@]1(O[C@@H]1O[C@H](CO)[C@@H](O)[C@H](O)[C@H]1O[C@@H]1O[C@H](CO)[C@@H](O)[C@H](O)[C@H]1O)C3` [stevioside], the bitterness intensity [1] was 5 out of 5, the sugar-like tasting quality [1] was 0 out of 5 and the sweetness intensity [1] was 5 out of 10. The sweetness linger [1] was 5 out of 5.
`OC[C@H]1O[C@@](CO)(O[C@H]2O[C@H](CO)[C@@H](O)[C@H](O)[C@H]2O)[C@@H](O)[C@@H]1O` [sugar] gave a bitterness intensity [3] of 0, a sugar-like tasting quality [3] of 5 and a sweetness intensity [3] of 10. For the same molecule, the sweetness linger [3] was 0.
For rebaudioside B, the bitterness intensity [1] was 0 out of 5, the sugar-like tasting quality [1] was 3 out of 5 and the sweetness intensity [1] was 2 out of 10. The sweetness linger [1] was 3 out of 5 and the sweetness linger [2] was 3.
